Among the test systems are CCRF-CEM leukemia; HCC-2998 colon; IGROV1 ovarian; NCI-H23 lung; OVCAR-3 ovarian; SNB-19 CNS; U251 CNS.
Common to all, as to test: NCI anticancer screen, dose series, 48 h

This is an account of results in PubChem BioAssay (NCI).

Molecules are shown by their SMILES.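 Dose response: 5 concentrations. Exposure: 48 h. Format: 96-well plates. Endpoint: linear interpolation; highest concentration if not reached. GI50 is the concentration that inhibits growth by half. TGI denotes the concentration required for complete inhibition of growth.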

As for `O=Cc1ccc2c(c1-c1c(C=O)ccc3c1OCO3)OCO2`, the TGI in the experiment on CCRF-CEM leukemia, in the experiment with HCC-2998 colon, in the experiment with IGROV1 ovarian, in the experiment on NCI-H23 lung, in the experiment on OVCAR-3 ovarian and in the experiment on SNB-19 CNS was above 100 µM each time. In the experiment on U251 CNS, the TGI is above 100 µM.
With `CC(=O)[O][Ga]([Br])[O]C(C)=O`, the GI50 with CCRF-CEM leukemia, with IGROV1 ovarian, in the experiment with NCI-H23 lung, in the experiment with OVCAR-3 ovarian, in the experiment on SNB-19 CNS and with U251 CNS was above 100 µM each time. The TGI in the experiment on CCRF-CEM leukemia, in the experiment on IGROV1 ovarian, in the experiment on NCI-H23 lung, in the experiment on OVCAR-3 ovarian, in the experiment with SNB-19 CNS and in the experiment on U251 CNS was above 100 µM in each case.
`CCCO/S(=N\S(=O)(=O)c1ccccc1)c1ccccc1[N+](=O)[O-]` (stereo not given): the TGI in the experiment on CCRF-CEM leukemia, in the experiment with HCC-2998 colon, in the experiment on IGROV1 ovarian, in the experiment on NCI-H23 lung, in the experiment on OVCAR-3 ovarian and in the experiment on SNB-19 CNS was above 100 µM throughout. This molecule returned a TGI in the experiment with U251 CNS above 100 µM.
`N#CC(C(=O)C(=O)Nc1ccc(Cl)cc1)c1ccccc1` (stereo not given): the TGI with CCRF-CEM leukemia, with HCC-2998 colon, in the experiment on IGROV1 ovarian, with NCI-H23 lung, with OVCAR-3 ovarian and in the experiment on SNB-19 CNS was above 100 µM each time. In addition, in the experiment on U251 CNS, the TGI is above 100 µM.
Turning to `CC(C)N(CCn1c2c3ccccc3ccc2c2oc(=O)c3ccccc3c21)C(C)C`, the TGI in the experiment on CCRF-CEM leukemia, in the experiment with IGROV1 ovarian, in the experiment on NCI-H23 lung, with OVCAR-3 ovarian, in the experiment with SNB-19 CNS and with U251 CNS was above 100 µM in each case.
As to `CCOP(=O)(OCC)OC1C=CC2CCC1C2` (stereo not given), the TGI in the experiment with CCRF-CEM leukemia, in the experiment with HCC-2998 colon, in the experiment on IGROV1 ovarian, with NCI-H23 lung, in the experiment with OVCAR-3 ovarian and with SNB-19 CNS was above 100 µM in each case. The molecule also returned a TGI in the experiment with U251 CNS above 100 µM.
As for `Cc1cc(NS(=O)(=O)c2ccc(Nc3c4ccccc4nc4c(C(=O)N5CCN(CCO)CC5)ccc(Cl)c34)cc2)no1`, the TGI in the experiment on CCRF-CEM leukemia was 74 µM; with HCC-2998 colon, above 100 µM; with IGROV1 ovarian it was above 100 µM; with NCI-H23 lung it was above 100 µM; in the experiment with OVCAR-3 ovarian it was above 100 µM; in the experiment on SNB-19 CNS it was above 100 µM. In addition, the TGI in the experiment on U251 CNS is above 100 µM.
`S=c1[nH]c(=S)c2nnn(-c3ccccc3)c2[nH]1`: the TGI in the experiment with CCRF-CEM leukemia, in the experiment with HCC-2998 colon, in the experiment on IGROV1 ovarian, in the experiment on NCI-H23 lung, with OVCAR-3 ovarian and with SNB-19 CNS was above 100 µM throughout. Further, the TGI in the experiment on U251 CNS was above 100 µM.
Regarding `COC(=O)/C=C1\CCC(C)O1` (stereo not given), the TGI in the experiment with CCRF-CEM leukemia, in the experiment on HCC-2998 colon, with IGROV1 ovarian, with NCI-H23 lung, in the experiment on OVCAR-3 ovarian and in the experiment on SNB-19 CNS was above 100 µM in each case. This molecule also had a TGI in the experiment with U251 CNS above 100 µM.
Consider `CC(C)C(=O)Nc1nc2c(ncn2C2OC(CO)C(O)C2O)c(=O)[nH]1` (stereo not given), for which the TGI in the experiment with CCRF-CEM leukemia, with HCC-2998 colon, in the experiment with IGROV1 ovarian, in the experiment on NCI-H23 lung, in the experiment on OVCAR-3 ovarian and in the experiment with U251 CNS was above 100 µM throughout.
Consider `Cc1cc(S(=O)(=O)O)c(NC(=O)C(=O)Cc2cc(=O)oc3cc(O)ccc23)cc1Cl`, for which the TGI in the experiment on CCRF-CEM leukemia, in the experiment on HCC-2998 colon, in the experiment on IGROV1 ovarian, with NCI-H23 lung, in the experiment with OVCAR-3 ovarian and with SNB-19 CNS was above 100 µM throughout. In the experiment on U251 CNS, this molecule showed a TGI above 100 µM.
For the molecule `CC1COC(C)(C)P(=O)(c2ccccc2)C1` (stereo not given), the TGI in the experiment on CCRF-CEM leukemia, in the experiment on HCC-2998 colon, in the experiment on IGROV1 ovarian, in the experiment on NCI-H23 lung, with OVCAR-3 ovarian and with SNB-19 CNS was above 100 µM throughout. The molecule also returned a TGI with U251 CNS above 100 µM.
For the molecule `CNS(=O)(=O)NNS(=O)(=O)c1ccc(Br)cc1`, the TGI in the experiment with CCRF-CEM leukemia, in the experiment with HCC-2998 colon, in the experiment with IGROV1 ovarian, in the experiment with NCI-H23 lung, in the experiment on SNB-19 CNS and in the experiment on U251 CNS was above 100 µM throughout.
Take `CC(C)C(=O)NS(=O)(=O)c1ccccc1`: the TGI with CCRF-CEM leukemia, in the experiment with HCC-2998 colon, in the experiment with IGROV1 ovarian, in the experiment with NCI-H23 lung, with OVCAR-3 ovarian and in the experiment on SNB-19 CNS was above 100 µM each time. In the experiment with U251 CNS, the TGI is above 100 µM.
As for `CCC1CCc2c(c(=O)oc3c2cc(OC)c2cccc(OC)c23)C1` (stereo not given), the TGI with CCRF-CEM leukemia, with HCC-2998 colon, with IGROV1 ovarian, with NCI-H23 lung, in the experiment on SNB-19 CNS and with U251 CNS was above 100 µM each time.
`CC(=O)O[C@H]1CCC2[C@@H]3CCC4Nc5[nH]ncc5C[C@]4(C)C3CC[C@@]21C` (stereo not given in full): the TGI in the experiment on CCRF-CEM leukemia was 66.5 µM; with HCC-2998 colon, 79.7 µM; with IGROV1 ovarian it was above 100 µM; in the experiment on NCI-H23 lung, above 100 µM; with OVCAR-3 ovarian, above 100 µM; in the experiment on SNB-19 CNS it was above 100 µM. Besides, the TGI with U251 CNS is above 100 µM.
For `COC(=O)[C@H]1C=C[C@@H](C)n2c(=O)c3cc4ccccc4cc3c(=O)n21`, the TGI with CCRF-CEM leukemia, with HCC-2998 colon, with IGROV1 ovarian, in the experiment on NCI-H23 lung, in the experiment with OVCAR-3 ovarian and with SNB-19 CNS was above 100 µM throughout. In the experiment on U251 CNS, this molecule showed a TGI above 100 µM.
